Reference: patent US6346514B1, “Pharmaceutical lysine-containing polypeptide compositions and methods of use thereof” (priority 1991, dated 2002)

Legend:
[1] = test system: methicillin resistant Staphylococcus aureus; test: Survival of mice inoculated with 10xLD50 S. aureus, EK pretreatment with or without Ampicillin; assay type: in vivo
Procedure: Animals were inoculated intraperitoneally with 10×LD50 of a Staphylococcus aureus suspended in brain-heart infusion broth containing 5 percent mucin. […] If significant prevention of mortality (>50 percent survival) was observed, the minimum effective dose (MED) was determined.
Two control experiments were initially conducted. […] No antibiotic was administered to this group. The number of survivors at 72 hours was determined. […] The number of survivors at 72 hours was recorded.
Survival statistics were determined over the periods of 12, 24, 36, 48, and 72 hours. […] Survival statistics were determined over the periods 12, 23,36, 48, and 72 hours. FIG. 1 illustrates the experimental protocol.

microbial growth = test: Bacterial culture experiments with EK; assay type: cell-based; details: concentrations exceeding 1000 times the administered dose to animals
[2] = test system: methicillin resistant Staphylococcus aureus; details: methicillin-resistant S. aureus (MR); s.c. in the hour subsequent to inoculation; previous studies; cited from earlier work
[3] = test system: methicillin-resistant S. aureus; details: S. aureus (MR); s.c. in the hour subsequent to inoculation; cited from earlier work
[4] = 12 HOURS after inoculation, EK 10 mcg/kg
[5] = 12 HOURS after inoculation, EK 100 mcg/kg
[6] = 12 HOURS after inoculation, EK 1000 mcg/kg
[7] = 24 HOURS after inoculation, EK 10 mcg/kg
[8] = 24 HOURS after inoculation, EK 100 mcg/kg
[9] = 24 HOURS after inoculation, EK 1000 mcg/kg
[10] = 36 HOURS after inoculation, EK 10 mcg/kg
[11] = 36 HOURS after inoculation, EK 100 mcg/kg
[12] = 36 HOURS after inoculation, EK 1000 mcg/kg
[13] = 48 HOURS after inoculation, EK 10 mcg/kg
[14] = 48 HOURS after inoculation, EK 100 mcg/kg
[15] = 48 HOURS after inoculation, EK 1000 mcg/kg
[16] = 72 HOURS after inoculation, EK 10 mcg/kg
[17] = 72 HOURS after inoculation, EK 100 mcg/kg
[18] = 72 HOURS after inoculation, EK 1000 mcg/kg

Compound: Glu-Lys [EK]
- Deaths [1, 4]: 0
- Survival [1, 4]: 100.00%
- Survivors [1, 4]: 18
- Deaths [1, 5]: 2
- Survival [1, 5]: 88.89%
- Survivors [1, 5]: 16
- Deaths [1, 6]: 1
- Survival [1, 6]: 94.44%
- Survivors [1, 6]: 17
- Deaths [1, 7]: 5
- Survival [1, 7]: 72.22%
- Survivors [1, 7]: 13
- Deaths [1, 8]: 5
- Survival [1, 8]: 72.22%
- Survivors [1, 8]: 13
- Deaths [1, 9]: 1
- Survival [1, 9]: 94.44%
- Survivors [1, 9]: 17
- Deaths [1, 10]: 9
- Survival [1, 10]: 50.00%
- Survivors [1, 10]: 9
- Deaths [1, 11]: 9
- Survival [1, 11]: 50.00%
- Survivors [1, 11]: 9
- Deaths [1, 12]: 4
- Survival [1, 12]: 77.78%
- Survivors [1, 12]: 14
- Deaths [1, 13]: 13
- Survivors [1, 13]: 5
- Deaths [1, 14]: 13
- Survivors [1, 14]: 5
- Deaths [1, 15]: 10
- Survival [1, 15]: 44.44%
- Survivors [1, 15]: 8
- Deaths [1, 16]: 13
- Survivors [1, 16]: 5
- Deaths [1, 17]: 13
- Survivors [1, 17]: 5
- Deaths [1, 18]: 11
- Survival [1, 18]: 38.89%
- Survivors [1, 18]: 7
- survival after normally lethal i.p. dose of S. aureus ([1]; EK pretreatment): dramatic improvement in survival
- Survival ([1]; at 36 hours, across EK dose groups): ≤ 78%
- Survival ([1]; by 72 hours, across EK dose groups): at least 27%
- activity on microbial growth (microbial growth): no inhibitory nor suppressive activity

Compound: CC1(C)S[C@@H]2[C@H](NC(=O)[C@H](N)c3ccccc3)C(=O)N2[C@H]1C(=O)O [Amp, Ampicillin]
- MED (minimum effective dose) [2]: greater than 100 mg/kg
- MED (minimum effective dose) [3]: greater than 100 mg/kg
